Results: US12043599B2, “Herbicidal compounds” (SYNGENTA PARTICIPATIONS AG, priority 2018, dated 2024)

Assays:
Format in all cases: in vivo
Conditions in all cases: 250 g/h, evaluated after 13 days
[1] = test system: Avena fatua (AVEFA); assay: Pre-emergence herbicidal glasshouse test, percentage damage
Experimental: (§1) Seeds of a variety of test species are sown in standard soil in pots (Lolium perenne (LOLPE), Setaria faberi (SETFA), Alopecurus myosuroides (ALOMY), Echinochloa crus-galli (ECHCG), Avena fatua (AVEFA)). After cultivation for one day (pre-emergence) or after 8 days cultivation (post-emergence) under controlled conditions in a glasshouse (at 24/16° C., day/night; 14 hours light; 65% humidity), the plants are sprayed with an aqueous spray solution derived from the formulation of the technical active ingredient in acetone/water (50:50) solution containing 0.5% Tween 20 (polyoxyethelyene sorbitan monolaurate, CAS RN 9005-64-5). Compounds are applied at […]. The test plants are then grown in a glasshouse under controlled conditions in a glasshouse (at 24/16° C., day/night; 14 hours light; 65% humidity) and watered twice daily. After 13 days for pre and post-emergence, the test is evaluated for the percentage damage caused to the plant. The biological activities are shown in the following table on a five point scale (5=80-100%; 4=60-79%; 3=40-59%; 2=20-39%; 1=0-19%).

[2] = test system: Echinochloa crus-galli (ECHCG); assay: as above
Experimental: as §1

[3] = test system: Lolium perenne (LOLPE); assay: as above
Experimental: as §1

[4] = test system: Setaria faberi (SETFA); assay: as above
Experimental: as §1

[5] = test system: Setaria faberi (SETFA); assay: Post-emergence herbicidal glasshouse test, percentage damage
Experimental: as §1
Using procedures outlines above, wheat and barley crop plants and a weed species (SETFA) are treated post-emergence with compound A11 of the present invention or comparator compound C1 (Compound A-38 from WO2014/096289) at the application rates indicated. The compounds were also applied to wheat in conjunction with the safener compound cloquintocet-mexyl (CQC) at 50 g/ha.

[6] = test system: Avena fatua (AVEFA); assay: as above
Experimental: as §1

[7] = test system: Echinochloa crus-galli (ECHCG); assay: as above
Experimental: as §1

[8] = test system: Lolium perenne (LOLPE); assay: as above
Experimental: as §1

Row | SMILES | AVEFA PRE percentage damage (five point scale) [1] | ECHCG PRE percentage damage (five point scale) [2] | LOLPE PRE percentage damage (five point scale) [3] | SETFA PRE percentage damage (five point scale) [4] | SETFA POST percentage damage (five point scale) [5] | AVEFA POST percentage damage (five point scale) [6] | ECHCG POST percentage damage (five point scale) [7] | LOLPE POST percentage damage (five point scale) [8]
1 | CC#Cc1cc(C)c(C2C(=O)CC3(CCN(C(=O)c4cnc(C#N)s4)CC3)CC2=O)c(C)c1 [Compound A106] | 2 (2=20-39%) | 4 (4=60-79%) | 3 (3=40-59%) | 4 (4=60-79%) | 5 (5=80-100%) | 5 (5=80-100%) | 3 (3=40-59%) | 3 (3=40-59%)
2 | CC#Cc1cc(C)c(C2C(=O)CC3(CCN(S(=O)(=O)c4cnccn4)CC3)CC2=O)c(C)c1 [Compound A107] | 4 (4=60-79%) | 3 (3=40-59%) | 5 (5=80-100%) | 4 (4=60-79%) | 5 (5=80-100%) | 5 (5=80-100%) | 5 (5=80-100%) | 5 (5=80-100%)
3 | CC#Cc1cc(C)c(C2C(=O)CC3(CCN(C(=O)NC(=O)CC)CC3)CC2=O)c(C)c1 [Compound A108] | 5 (5=80-100%) | 5 (5=80-100%) | 5 (5=80-100%) | 5 (5=80-100%) | 5 (5=80-100%) | 5 (5=80-100%) | 5 (5=80-100%) | 5 (5=80-100%)
4 | CC#Cc1cc(C)c(C2C(=O)CC3(CCN(C(=O)CC4CCOCC4)CC3)CC2=O)c(C)c1 [Compound A109] | 5 (5=80-100%) | 5 (5=80-100%) | 5 (5=80-100%) | 5 (5=80-100%) | 5 (5=80-100%) | 5 (5=80-100%) | 5 (5=80-100%) | 5 (5=80-100%)
5 | CC#Cc1cc(C)c(C2C(=O)CC3(CCN(C(=O)c4cccc(OC)n4)CC3)CC2=O)c(C)c1 [Compound A110] | 5 (5=80-100%) | 5 (5=80-100%) | 5 (5=80-100%) | 5 (5=80-100%) | 5 (5=80-100%) | 5 (5=80-100%) | 5 (5=80-100%) | 5 (5=80-100%)
6 | CC#Cc1cc(C)c(C2C(=O)CC3(CCN(C(=O)c4nccn4C)CC3)CC2=O)c(C)c1 [Compound A112] | 5 (5=80-100%) | 5 (5=80-100%) | 5 (5=80-100%) | 5 (5=80-100%) | 5 (5=80-100%) | 5 (5=80-100%) | 5 (5=80-100%) | 5 (5=80-100%)
7 | CC#Cc1cc(C)c(C2C(=O)CC3(CCN(C(=O)c4ncccc4C#N)CC3)CC2=O)c(C)c1 [Compound A114] | 4 (4=60-79%) | 5 (5=80-100%) | 5 (5=80-100%) | 5 (5=80-100%) | 5 (5=80-100%) | 5 (5=80-100%) | 5 (5=80-100%) | 5 (5=80-100%)
8 | CC#Cc1cc(C)c(C2C(=O)CC3(CCN(C(=O)c4cnccc4C)CC3)CC2=O)c(C)c1 [Compound A115] | 3 (3=40-59%) | 5 (5=80-100%) | 5 (5=80-100%) | 5 (5=80-100%) | 5 (5=80-100%) | 5 (5=80-100%) | 5 (5=80-100%) | 5 (5=80-100%)
9 | CC#Cc1cc(C)c(C2C(=O)CC3(CCN(C(=O)c4cnco4)CC3)CC2=O)c(C)c1 [Compound A116] | 5 (5=80-100%) | 5 (5=80-100%) | 5 (5=80-100%) | 5 (5=80-100%) | 5 (5=80-100%) | 5 (5=80-100%) | 5 (5=80-100%) | 5 (5=80-100%)
10 | CC#Cc1cc(C)c(C2C(=O)CC3(CCN(C(=O)c4cn(C)cn4)CC3)CC2=O)c(C)c1 [Compound A117] | 2 (2=20-39%) | 5 (5=80-100%) | 4 (4=60-79%) | 5 (5=80-100%) | 5 (5=80-100%) | 5 (5=80-100%) | 5 (5=80-100%) | 5 (5=80-100%)
11 | CC#Cc1cc(C)c(C2C(=O)CC3(CCN(C(=O)c4cncs4)CC3)CC2=O)c(C)c1 [Compound A118] | 5 (5=80-100%) | 5 (5=80-100%) | 5 (5=80-100%) | 5 (5=80-100%) | 5 (5=80-100%) | 5 (5=80-100%) | 5 (5=80-100%) | 5 (5=80-100%)
12 | CC#Cc1cc(C)c(C2C(=O)CC3(CCN(C(=O)c4nnc(C)o4)CC3)CC2=O)c(C)c1 [Compound A119] | 5 (5=80-100%) | 5 (5=80-100%) | 5 (5=80-100%) | 5 (5=80-100%) | 5 (5=80-100%) | 5 (5=80-100%) | 5 (5=80-100%) | 5 (5=80-100%)
13 | CC#Cc1cc(C)c(C2C(=O)CC3(CCN(C(=O)c4cc(OC)ccn4)CC3)CC2=O)c(C)c1 [Compound A120] | 4 (4=60-79%) | 5 (5=80-100%) | 5 (5=80-100%) | 5 (5=80-100%) | 5 (5=80-100%) | 5 (5=80-100%) | 5 (5=80-100%) | 5 (5=80-100%)
